Source: patent publication US12324845B2, “Ligands for imaging cardiac innervation” (Lantheus Medical Imaging, Inc., priority 2006, dated 2025)
Where a name gives a salt, the structure may show the parent alone.

Molecular target: T1, human norepinephrine transporter (Homo sapiens, UniProt P23975)
T1 construct: purchased Perkin-Elmer; host or cells: MDCK cells (membrane preparation)
Test: Norepinephrine Transporter Binding Assay ([3H]desipramine displacement, MDCK cell membranes)
Details: MDCK cell membrane preparation expressing human NET; [3H]desipramine 2 nM; 2 h on ice; triplicate
Experimental: Unless otherwise stated, all reactions were conducted under an inert atmosphere of dry nitrogen. Indicated temperatures refer to those of the reaction bath, while ambient laboratory temperature is noted as 22° C. Anhydrous dimethylformamide (DMF), dimethylsulfoxide (DMSO), acetonitrile (MCCN), pyridine, triethylamine (TEA), and diisopropylethylamine (DIEA) were obtained from Aldrich in SureSeal® bottles. Absolute ethanol was obtained from Quantum Chemical Corp. Merck silica gel, grade 9385, 230-400 mesh, 60 Å was used for flash chromatography. Ethyl acetate (EtOAc), chloroform (CHCl3), methanol (MeOH), HPLC grade acetonitrile (MeCN), dichloromethane (DCM), ethyl ether, acetone, sodium hydroxide (NaOH), and hydrochloric acid (HCl) were obtained from Baker. 1-Trityl-1H-imidazole-2-amine was prepared according to a published procedure (U.S. Pat. No. 6,130,231, incorporated by reference in its entirety). 1-Bromo-2-fluoroethane was purchased from Alfa Aesar. 3-Methoxy-4-fluorobenzonitrile was purchased from TCI. MDCK cell membranes expressing human norepinephrine transporter, and [^3H]desipramine were purchased from Perkin-Elmer. [^18F]NaF was obtained from PETNET Pharmaceutical Services (Cummings Park, Woburn, MA) on a MP1 anion exchange resin (BioRad) cartridge. Other reagents were obtained from Lancaster Synthesis, Inc., Sigma-Aldrich Chemical Co, or Fluka Chemical Corp.
Inhibitors to be tested were dissolved in incubation buffer (50 mM Tris-HCl, 10% sucrose, pH 7.4) at appropriate dilutions. The inhibitor solutions were added to the wells of a microtiter plate (40 μL/well) in triplicate. Each well of test agent (and appropriate control wells) was treated with a mixture of MDCK cell membrane preparation (22.4 μg of membrane) expressing human norepinephrine transporter (Bmax=3.7 pmol norepinephrine transporter/mg protein), and [^3H]desipramine (2 nM, 64.8 Ci/mmol) in a total volume of 0.2 mL. The resulting mixtures were incubated for 2 h on ice. A 96 well GF/C filter plate was presoaked with coating buffer (0.5% polyvinylpyrrolidine and 0.1% Tween 20) for 2 h at room temperature. The presoaked filter plate was washed with incubation buffer (6×0.2 mL). The NET reactions were transferred to the coated filter plate and filtered. The filter plate was washed (6×0.2 mL) with ice cold wash buffer (50 mM Tris-HCl, 0.9% NaCl, pH 7.4). The plate was dried overnight, incubated briefly with 25 μL scintillant, and read on a Micro Beta plate reader.

T1 sequence (P23975 whole entry): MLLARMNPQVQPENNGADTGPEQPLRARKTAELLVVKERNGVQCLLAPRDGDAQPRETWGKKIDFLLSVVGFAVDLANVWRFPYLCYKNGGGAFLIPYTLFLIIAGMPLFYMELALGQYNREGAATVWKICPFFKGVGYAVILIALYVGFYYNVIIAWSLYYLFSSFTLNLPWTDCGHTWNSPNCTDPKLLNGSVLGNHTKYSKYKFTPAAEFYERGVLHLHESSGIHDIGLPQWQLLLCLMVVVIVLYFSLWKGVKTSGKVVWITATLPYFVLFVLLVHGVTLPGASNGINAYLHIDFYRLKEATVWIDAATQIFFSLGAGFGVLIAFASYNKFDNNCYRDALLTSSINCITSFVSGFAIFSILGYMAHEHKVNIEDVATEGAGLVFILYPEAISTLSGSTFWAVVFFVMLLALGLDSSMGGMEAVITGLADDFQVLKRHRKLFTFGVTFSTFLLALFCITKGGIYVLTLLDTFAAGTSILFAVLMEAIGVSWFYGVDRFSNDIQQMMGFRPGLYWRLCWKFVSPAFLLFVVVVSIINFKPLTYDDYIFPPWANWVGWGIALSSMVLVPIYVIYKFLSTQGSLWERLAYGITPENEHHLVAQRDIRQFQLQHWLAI

| SMILES | NET Affinity [µM] |
| --- | --- |
| CC(N)C(O)c1cc(O)c(OCCF)c(O)c1.Cl (centres unmarked) [Example 6, 5-(2-Amino-1-hydroxypropyl)-2-(2-fluoroethoxy)benzene-1,3-diol Hydrochloride] | 102.8 |
| Cl.N=C(N)NCC(O)c1ccc(OCCF)cc1 (centres unmarked) [Example 2, 1-(2-(4-(2-fluoroethoxy)phenyl)-2-hydroxyethyl)guanidinium Chloride] | <20 |
| N=C(N)NCc1cccc(OCCF)c1 [Example 9, 3-(2-Fluoroethoxy)benzylguanidinium Trifluoroacetate] | 4.36 |
| Fc1ccc(CNc2ncc[nH]2)cc1C(F)(F)F [Example 1, N-(4-Fluoro-3-(trifluoromethyl)benzyl)-1H-imidazol-2-amine] | 17.94 |
| Cl.N=C(N)NCCc1ccc(OCCF)cc1 [Example 3, 1-(4-(2-Fluoroethoxy)phenethyl)guanidinium Chloride] | 1.45 |
| Cl.N=C1NCC(c2ccc(OCCF)cc2)N1 (centres unmarked) [Example 4, 4-(4-(2-Fluoroethoxy)phenyl)imidazolidin-2-iminium Chloride] | 7.27 |
| N=C(N)NCCc1ccc(OCCF)c(Cl)c1 [Example 10, 3-Chloro-4-(2-fluoroethoxy)phenethylguanidinium Trifluoroacetate] | 1.80 |
| COc1cc(CNC(=N)N)ccc1F.Cl [Example 7, 3-Methoxy-4-fluorobenzylguanidinium Chloride] | 20.71 |
| CNC(C)C(O)c1ccc(F)c(O)c1 (centres unmarked) [Example 11, 1-(4-Fluoro-3-hydroxyphenyl)-1-hydroxy-N-methylpropan-2-aminium Trifluoroacetate] | 54.85 |
| Cl.N=C(N)N/C=C/c1ccc(OCCF)cc1 [Example 5, (E)-1-(4-(2-Fluoroethoxy)styryl)guanidinium Chloride] | 4.10 |
| Cl.N=C(N)NCc1ccc(OCCF)c(Br)c1 [Example 8, 3-Bromo-4-(2-fluoroethoxy)benzylguanidinium Chloride] | 5.65 |
